In patent US20220193066A1, “QUINOLINE DERIVATIVE USED FOR COMBINATION TREATMENT OF SMALL CELL LUNG CANCER” (CHIA TAI TIANQING PHARMACEUTICAL GROUP CO., LTD., priority 2019, published 2022):

Tests used:
Format in all cases: in vivo, human
[1] = system: small cell lung cancer (including ED-SCLC and LD-SCLC); test: Clinical trial of EP or EC regimen (etoposide+cisplatin/carboplatin)+anlotinib in small cell lung cancer patients (Example 1)
Excerpt: Patients who were pathologically diagnosed with small cell lung cancer (including ED-SCLC and LD-SCLC) with measurable lesions were divided into the following groups: two combination administration groups adopting a combination of either EP or EC regimen (etoposide+cisplatin/carboplatin)+anlotinib, and a control group adopting either EP or EC alone (etoposide+cisplatin/carboplatin). The administration regimens are detailed below.
In the combination administration group, patients received etoposide: 100 mg/m^2, i.v., for 120 min, administered at d1-3 of each 21-day dosing cycle; cisplatin: 75 mg/m^2, or carboplatin: AUC 5, i.v., for 120 min, administered at d1 of each 21-day dosing cycle; anlotinib, 12 mg/day, administered orally on an empty stomach in the morning at d1-14 of each 21-day dosing cycle. After 4-6 dosing cycles of combination treatment, anlotinib was used for maintenance treatment: 12 mg/day, administered orally on an empty stomach in the morning at d1-14 of each 21-day dosing cycle until progressive disease.
In the control group, patients received etoposide: 100 mg/m^2, i.v., for 120 min, administered at d1-3 of each 21-day dosing cycle; cisplatin: 75 mg/m^2 or carboplatin: AUC 5, i.v., for 120 min, administered at d1 of each 21-day dosing cycle.
The observation indexes are as follows: primary endpoint: progression-free survival (PFS); secondary endpoint: objective response rate (ORR), overall survival (OS), disease control rate (DCR), safety, and tolerability.
The clinical trial was implemented, and 31 patients were enrolled between February 2018 and October 2019.

[2] = system: extensive-stage small cell lung cancer; test: Clinical study of anlotinib in combination with etoposide in extensive-stage small cell lung cancer after second-line failure (Example 3); conditions: anlotinib hydrochloride capsules 12 mg qd d1-14 in combination with etoposide soft capsules 100 mg qd d1-10, 21-day cycle
Experimental: Patients with extensive-stage small cell lung cancer after the pathological diagnosis of small cell lung cancer and failure with second-line chemotherapy (having received two previous chemotherapy regimens) were administered with anlotinib in combination with etoposide.
The administration regimens are detailed below.
Etoposide soft capsules: once daily, oral administration before breakfast, 100 mg (by weight of etoposide comprised therein) each time, administered at d1-10 of each 21-day dosing cycle.
Anlotinib hydrochloride capsules: once daily, oral administration before breakfast, 12 mg each time, administered at d1-14 of each 21-day dosing cycle.
The interval between the two drugs was more than half an hour. If there was a missed dose, the interval needed to be confirmed that it was not shorter than 12 hours before the next dose, otherwise no more doses would be taken. During the administration, dosage adjustments could be made according to the degree of drug-related toxicity and possible therapeutic benefit of the patient. The dose could be adjusted to the following 2 levels for anlotinib: 10 mg and 8 mg. If a reduction of more than 2 dose levels was required, the treatment was discontinued. The dose of etoposide could be reduced to 50 mg. […]

small cell lung cancer [3] = test: Clinical study of anlotinib in combination with irinotecan in relapsed small cell lung cancer (Example 2); conditions: anlotinib hydrochloride capsule 12 mg qd po d1-14 in combination with irinotecan 60-80 mg/m^2 i.v. d1 and d8, q3w
Excerpt: Patients who have been histopathologically and cytologically diagnosed with small cell lung cancer, have previously received 1 systemic chemotherapy adopting platinum-based chemotherapy regimens, and relapsed or failed after treatment, excluding patients with non-small cell lung cancer (including small cell and non-small cell mixed types), were divided into a combination administration group and a single-drug chemotherapy control group. The administration regimens are detailed below.
Combination administration group: anlotinib hydrochloride capsule 12 mg qd po d1-14 and irinotecan 60-80 mg/m^2 i.v. d1 and d8; q3w, no more than 6 chemotherapy dosing cycles.
Single-drug chemotherapy control group: irinotecan 60-80 mg/m^2 i.v. d1 and d8; q3w, no more than 6 chemotherapy dosing cycles.
Patients who achieved complete response (CR), partial response (PR), and stable disease (SD) continued to be administered until progressive disease (PD), intolerable toxicity, or patients who required withdrawal or achieved progressive disease (PD) were discontinued. The efficacy evaluation observation indexes include progression-free survival (PFS), overall survival (OS), objective response rate (ORR), disease control rate (DCR), duration of response (DOR), quality of life score and drug safety.

small cell lung cancer [4] = test: Clinical study of anlotinib in combination with sintilimab in relapsed small cell lung cancer (Example 5); conditions: anlotinib hydrochloride capsules 12 mg qd d1-14 in combination with sintilimab 200 mg i.v. d1, 21-day cycle
Experimental: Patients who have been histologically or cytologically confirmed pathologically diagnosed with small cell lung cancer, have previously received at least one systemic chemotherapy regimen and have relapsed were administered with anlotinib in combination with sintilimab. The administration regimens are detailed below.
Anlotinib hydrochloride capsules: once daily, oral administration before breakfast, 12 mg each time, administered at d1-14 of each 21-day dosing cycle, consecutive 2-week treatment and 1-week interruption.
Sintilimab: 200 mg, i.v. infusion, administered d1 of each 21-day dosing cycle.
All patients continued for a treatment period of up to 12 months, or until progressive disease, development of an intolerable toxic response, withdrawal of informed consent, death, or other event requiring discontinuation of treatment specified in the protocol, whichever occurred first.
The efficacy evaluation observation indexes include progression-free survival (PFS), overall survival (OS), objective response rate (ORR=CR+PR), disease control rate (DCR=CR+PR+SD) and drug safety.

[5] = anlotinib 12 mg/day in combination with EP or EC regimen, 31 patients
[6] = anlotinib 12 mg/day in combination with EP or EC regimen, of 31 patients
[7] = combination of anlotinib and EP or EC regimen

## COc1cc2c(Oc3ccc4[nH]c(C)cc4c3F)ccnc2cc1OCC1(N)CC1 [anlotinib, 1-[[[4-(4-fluoro-2-methyl-1H-indol-5-yl)oxy-6-methoxyquinolin-7-yl]oxy]methyl]cyclopropylamine]
[1]; [5]
  disease control rate (DCR): 100%
  objective response rate (ORR): 74.2%
[1]; [6]
  patients with complete response (CR): 3 patients
  patients with partial response (PR): 20 patients
  patients with progressive disease (PD): 0 patients
[1]; anlotinib 12 mg/day po d1-14 q21d in combination with EP or EC regimen (etoposide + cisplatin/carboplatin), then anlotinib maintenance, 31 patients
  median PFS (progression-free survival): 8.9 months
[1]; [7]
  clinical efficacy: good
  safety: good
[2]
  clinical benefits: had clinical benefits
Small cell lung cancer [3]
  clinical benefits: had clinical benefits
Small cell lung cancer [4]
  clinical benefits: had clinical benefits
  progression-free survival to date: up to 6 months
